Laboratory results from patent publication EP0405436B1, “Dihetero nitrogen-containing cycloheteroethanoanthracene derivatives as antipsychotic agents” (G.D. Searle & Co., priority 1989, dated 1991).
Read-outs that look alike come from different tables or passages of the source.

Legend:
sigma receptor = sigma receptor (Rattus norvegicus, UniProt Q9R0C9); format: binding, male Sprague-Dawley rats
Description: To determine the effects of the compounds in a sigma receptor assay, crude membrane preparations were prepared as follows. Brains from male Sprague-Dawley rats were homogenized in 10 volumes (wt/vol) of 0.32 M sucrose, using a Polytron grinder. The homogenate was centrifuged at 900 X G for 10 minutes at 4°C. The supernatant was collected and centrifuged at 22,000 X g for 20 minutes at 4°C. The pellet was resuspended in 10 volumes of 50 mM Tris/HCl buffer (pH 7.4) and centrifuged at 22,000 X g for 20 minutes at 4°C. The pellet was resuspended in 5 mM Tris/HCl buffer (pH 7.4) to give a final concentration of 250 mg/ml of the crude material. Incubation tubes were prepared in triplicate and contained 0.1 ml of tissue suspension, 2 nM of [³H]-(+)-1-propyl-3-(3-hydroxyphenyl)piperidine {[³H]-3-(+)-PPP}, and varying concentrations of the displacing ligand (0.1-1000 nM) in a final volume of 0.5 ml. After a 1 hr incubation at room temperature, the contents of the test tubes were filtered through GS filter paper which had been presoaked for at least 2 hours in 0.05% polyethyleneimine. The test tubes were rinsed three times with Tris/HCl buffer. Radioactivity on the filters was determined using […] [Biochem. Pharmacol., 22, 3099-3108, 1973].

[1] = system: apomorphine-induced climbing; experiment: Blockade of apomorphine-induced climbing; format: in vivo, Swiss-Webster mice; conditions: Mus musculus; mice, i.p. or s.c. pretreatment; 2 mg/kg apomorphine s.c.; rated at 10 and 20 minutes; read-out: Blockade of Apomorphine-induced Climbing ED₅₀
Description: Compounds of the invention were evaluated for their ability to block apomorphine-induced climbing. The evaluation of the compounds followed the method outlined by Protais [Psychopharmacol., 50, 1-6, 1976]. Swiss-Webster mice, weighing 20-25 g, are pretreated with the compounds of the invention by i.p. or s.c. administration at various times before 2 mg/kg apomorphine is administered s.c in a volume of 1 ml/kg. All test compounds are administered in a volume of 10 ml/kg. Mice are rated at 10 and 20 minutes after apomorphine administration using the following rating scale: (0) forepaws on the floor, (1) forefeet holding the bars, and (2) four paws holding bars. Dose-response curves are analyzed by a computerized Finney assay [Statistical Methods in Biological Assays, 2nd Edn., Hatner Pub. Co., New York (1964)].

[2] = read-out: Ki apparent (nM) (units ± SEM); rat brain membranes, 2 nM [³H]-3-(+)-PPP, 1 hr at room temperature, displacing ligand 0.1-1000 nM

sigma receptor, sequence (Q9R0C9 whole entry): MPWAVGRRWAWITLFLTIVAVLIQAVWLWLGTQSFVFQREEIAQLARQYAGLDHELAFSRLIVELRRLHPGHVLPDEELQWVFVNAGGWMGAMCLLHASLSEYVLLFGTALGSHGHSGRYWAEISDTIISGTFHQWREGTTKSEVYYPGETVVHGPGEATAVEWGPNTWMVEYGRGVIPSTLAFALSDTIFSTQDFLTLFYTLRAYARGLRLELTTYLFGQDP

Ki (sigma receptor; rat brain membranes, 2 nM [³H]-3-(+)-PPP, 1 hr at room temperature, displacing ligand 0.1-1000 nM; read-out: Ki apparent (nM) (units ± SEM)) | SMILES | Ki (sigma receptor; [2]) [nM] | ED50 [1] [mg/kg]
– | CN1CCN(CC2CC3c4ccccc4C2c2ccccc23)CC1 (stereo not drawn) [Compound No. 1, 4-[(9,10-Dihydro-9,10-ethanoanthracenyl)methyl]-1-methylpiperazine] | 120 ± 20 | 1
– | OCCN1CCN(CC2CC3c4ccccc4C2c2ccccc23)CC1 (stereo not drawn) [Compound No. 2, 4-[(9,10-dihydro-9,10-ethanoanthracenyl)methyl]-1-(2-hydroxyethyl)-piperazine] | 21 ± 6 | 1
– | c1cnc(N2CCN(CC3CC4c5ccccc5C3c3ccccc34)CC2)nc1 (stereo not drawn) [Compound No. 3, 4-[(9,10-Dihydro-9,10-ethanoanthracenyl)methyl]-1-(2-pyrimidyl)piperazine] | > 1000 | –
– | c1ccc2c(c1)C1CC(CN3CCN4CCCC4C3)C2c2ccccc21 (stereo not drawn) [Compound No. 4, 4-[(9,10-dihydro-9,10-ethanoanthracenyl)methyl]-1,4-diazabicyclo[4.3.0]nonane] | 20 ± 3 | –
> 1000 | CN1CCN(C(=O)C2CC3c4ccccc4C2c2ccccc23)CC1 (stereo not drawn) [Compound No. 5, reference compound] | – | –
– | c1ccc(CN2CCN(CC3CC4c5ccccc5C3c3ccccc34)CC2)cc1 (stereo not drawn) [Compound No. 6, 4-[(9,10-Dihydro-9,10-ethanoanthracenyl)methyl]-1-benzylpiperazine] | 98 ± 18 | 10
